Assay results: ChEMBL document CHEMBL1153677, “A novel series of 2-aminotetralins with high affinity and selectivity for the dopamine D3 receptor” (Bioorg Med Chem Lett, 1997)

What was measured:
[1] = molecular target: T1, 5-hydroxytryptamine receptor 1A (Mus musculus, UniProt Q64264); assay: Ability to displace [125I]iodosulpiride from 5-hydroxytryptamine 1A receptor
T1 sequence (Q64264 whole entry): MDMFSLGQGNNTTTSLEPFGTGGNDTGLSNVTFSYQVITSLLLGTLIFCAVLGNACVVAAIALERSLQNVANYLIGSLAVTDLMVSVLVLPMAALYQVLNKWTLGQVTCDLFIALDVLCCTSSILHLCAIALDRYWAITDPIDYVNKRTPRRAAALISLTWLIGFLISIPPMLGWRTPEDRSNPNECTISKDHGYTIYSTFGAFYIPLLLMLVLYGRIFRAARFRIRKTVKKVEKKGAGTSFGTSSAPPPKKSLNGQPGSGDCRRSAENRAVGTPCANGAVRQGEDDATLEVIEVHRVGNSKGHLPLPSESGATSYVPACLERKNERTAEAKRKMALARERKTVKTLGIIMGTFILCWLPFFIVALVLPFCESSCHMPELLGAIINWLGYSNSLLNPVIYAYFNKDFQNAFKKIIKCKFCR

D(2) dopamine receptor = D(2) dopamine receptor (Homo sapiens, UniProt P14416); assay: Displacement of [125I]iodosulpiride from human Dopamine receptor D2 expressed in CHO cells; type: cell-based
Sequence of D(2) dopamine receptor (P14416 whole entry): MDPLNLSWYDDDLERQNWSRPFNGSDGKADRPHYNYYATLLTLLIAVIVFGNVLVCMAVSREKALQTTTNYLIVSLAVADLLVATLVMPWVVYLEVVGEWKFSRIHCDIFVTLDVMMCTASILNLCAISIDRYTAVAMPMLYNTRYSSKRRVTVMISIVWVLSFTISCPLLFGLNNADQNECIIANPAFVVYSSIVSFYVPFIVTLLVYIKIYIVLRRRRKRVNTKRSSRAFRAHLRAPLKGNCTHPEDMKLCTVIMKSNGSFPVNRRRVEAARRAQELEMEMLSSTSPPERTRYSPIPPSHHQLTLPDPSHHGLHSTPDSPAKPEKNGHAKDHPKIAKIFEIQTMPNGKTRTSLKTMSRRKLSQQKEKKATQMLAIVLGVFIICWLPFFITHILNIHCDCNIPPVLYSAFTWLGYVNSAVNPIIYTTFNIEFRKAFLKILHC

D(3) dopamine receptor = D(3) dopamine receptor (Homo sapiens, UniProt P35462); assay: Displacement of [125I]iodosulpiride from human Dopamine receptor D3 expressed in CHO cells; type: cell-based
Sequence of D(3) dopamine receptor (P35462 whole entry): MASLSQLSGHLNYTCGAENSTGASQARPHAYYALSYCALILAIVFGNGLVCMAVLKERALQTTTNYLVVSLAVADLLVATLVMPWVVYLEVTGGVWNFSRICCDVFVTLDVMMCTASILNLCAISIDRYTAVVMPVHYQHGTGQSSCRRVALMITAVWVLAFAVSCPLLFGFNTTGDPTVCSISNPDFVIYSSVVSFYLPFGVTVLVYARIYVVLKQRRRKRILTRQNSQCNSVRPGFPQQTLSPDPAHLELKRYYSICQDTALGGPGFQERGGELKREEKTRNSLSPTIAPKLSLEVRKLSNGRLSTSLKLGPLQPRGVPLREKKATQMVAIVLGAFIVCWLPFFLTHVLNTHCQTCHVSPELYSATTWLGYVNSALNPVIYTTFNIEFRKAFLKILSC

Row | SMILES | Ki [1] [nM] | Ki (D(2) dopamine receptor) [nM] | Ki (D(3) dopamine receptor) [nM]
1 | COc1ccccc1N1CCN(CCCCNC(=O)c2ccc(-c3ccc(C(C)=O)cc3)cc2)CC1 | 3.16 | – | –
2 | CCCN(CCCCNC(=O)c1ccc(-c2ccccc2)cc1)C1CCc2ccccc2C1 (stereo not given) | – | 316 | 1.58
3 | CCCN(CCCCNC(=O)c1ccc(-c2ccccc2)cc1)C1CCc2c(cccc2OS(=O)(=O)C(F)(F)F)C1 (stereo not given) | – | 398 | 1.58
4 | CCCN(CCCCNC(=O)c1ccc(-c2ccccc2)cc1)C1CCc2c(cccc2C(N)=O)C1 (stereo not given) | – | 631 | 3.98
5 | CCCN(CCCCNC(=O)c1ccc(-c2ccccc2)cc1)C1CCc2c(O)cccc2C1 (stereo not given) | – | 25.1 | 0.2
6 | CCCN(CCCCNC(=O)c1ccc(-c2ccccc2)cc1)C1CCc2c(C#N)cccc2C1 (stereo not given) | – | 100 | 0.501

More lines, now with the values ahead:

Row | Ki [1] [nM] | Ki (D(2) dopamine receptor) [nM] | Ki (D(3) dopamine receptor) [nM] | SMILES
7 | – | 251 | 1.26 | CCCN(CCCCNC(=O)c1ccc(-c2ccccc2)cc1)C1CCc2c(cccc2OS(C)(=O)=O)C1 (stereo not given)
8 | – | 316 | 12.6 | COc1cccc2c1CCC(N(C)CCCCNC(=O)c1ccc(-c3ccccc3)cc1)C2 (stereo not given)
9 | – | 794 | 2.51 | CCCN(CCCCNC(=O)c1ccc(-c2ccccc2)cc1)C1CCc2c(cccc2OCC2CC2)C1 (stereo not given)
10 | – | 126 | 2.51 | CN(CCCCNC(=O)c1ccc(-c2ccccc2)cc1)C1CCc2c(O)cccc2C1 (stereo not given)
11 | – | 251 | 1.26 | CCCN(CCCCNC(=O)c1ccc(-c2ccccc2)cc1)C1CCc2c(Br)cccc2C1 (stereo not given)
12 | – | 398 | 1.58 | CCCN(CCCCNC(=O)c1ccc(-c2ccccc2)cc1)C1CCc2c(Cl)cccc2C1 (stereo not given)
13 | – | 126 | 0.794 | CCCN(CCCCNC(=O)c1ccc(-c2ccccc2)cc1)C1CCc2c(cccc2OC)C1 (stereo not given)
